The text below walks through data of patent publication US6110933A, “Amino acid derivatives and their use as phospholipase A2 inhibitor” (Fujisawa Pharmaceutical Co., Ltd., priority 1994, dated 2000).

The subject of one assay is PLA2 group I. As to the kind of experiment: Test on the inhibitory effect against phospholipase A2 (PLA2). The assay is classed as biochemical. To be noted: 83 ng/ml; PLA2 group I from porcine pancreas; preincubated with enzyme at 37° C. for 30 minutes; 5 μM [14C]phosphatidylcholine, pH 7.4. How it is done:
Test on the inhibitory effect against phospholipase A2 (PLA2)
The substrate, [^14 C]phosphatidylcholine (L-3-phosphatidylcholine, 1-stearyl-2-[1-^14 C]arachidonyl, was dried under N2 gas and suspended in deionized water with a probe sonicater. The standard reaction mixture in a total volume of 800 μl contained Tris-HCl buffer (10 mM, pH 7.4), CaCl2 (5 mM) and 10 ng/ml enzyme, PLA2 group I (from porcine pancreas, 700 units/mg, Boehringer Mannheim Yamanouchi Co., Ltd.). The reaction was started by addition of 5 μM [^14 C]phosphatidylcholine (L-3-phosphatidylcholine, 1-stearyl-2-[1-^14 C]arachidonyl to the enzyme solution. Following incubation at 37° C. for 30 minutes, the reaction was terminated by addition of 2 ml of Dole's reagent^1). To determine the release of ^14 C-arachidonic acid from the phospholipid substrate, free fatty acid was extracted by the method of Natori et al^2), and counted in 8 ml of Liquifluor (Du Pont, New England Nuclear). On the inhibition assay, inhibitor or vehicle was preincubated with enzyme at 37° C. for 30 minutes. Each sample was dissolved in methanol (1.25% final). All data are the average of at least duplicate determinations corrected for none enzymatic hydrolysis. Data were expressed as percent inhibition.

In a further assay the test system is PLA2 group II. In words: Inhibition of PLA2 group II. The assay is classed as biochemical. The settings on record: no concentration or figure given.

`CCCCCCCCCCCCC[C@@H](CC(N)=O)OC(=O)[C@H](CCCC(=O)O)NC(=O)c1ccc(OC)cc1` [Example 9, (3S)-3-[(2S)-5-Carboxy-2-(p-methoxybenzoylamino)-pentanoyl]oxyhexadecanamide] registered a Percent inhibition in the assay with PLA2 group I of 87.1%. For the same compound, the “inhibition of PLA2 group II” value with PLA2 group II is “inhibited”.
